Legend:
HaCaT [1] = experiment: Antiproliferative activity against human HaCaT cells; format: cell-based
HaCaT [2] = experiment: Cytotoxicity against human HaCaT cells assessed as LDH release at 2 uM; format: cell-based

Structure (SMILES)	IC50 (HaCaT [1]) [µM]	Activity (HaCaT [2]) [mU]
O=C1C=C(O)c2cccc(O)c2C1=O	> 10	–
CC(O)c1cc2c(o1)C(=O)c1ccccc1C2=O (configuration not stated)	3.7	–
CC/C=C/C1=C(O)C(=O)c2c(O)cccc2C1=O	> 10	–
CCc1cc2c(o1)C(=O)c1c(O)cccc1C2=O	3	–
CC(=O)c1cc2c(o1)C(=O)c1c(O)cccc1C2=O	0.3	346
CCc1cc2c(o1)-c1cccc(O)c1C(=O)C2=O	0.9	235
CC1(C)CCC2=C(O1)C(=O)c1ccccc1C2=O [ALPHA-LAPACHONE]	10	–
O=C1c2c(O)cccc2Cc2cccc(O)c21 [ANTHRALIN]	–	294
CC1(C)C=CC2=C(O1)C(=O)c1ccccc1C2=O [DEHYDRO-ALPHA-LAPACHONE]	> 10	–
C=C(C)C1CC2=C(O1)C(=O)c1ccccc1C2=O (stereo not drawn) [DEHYDROISO-ALPHA-LAPACHONE]	4.3	–
CC(C)=CCC1=C(O)C(=O)c2ccccc2C1=O [LAPACHOL]	> 10	–
CC1(C)CCC2=C(O1)c1ccccc1C(=O)C2=O [LAPACHONE]	0.7	329
CC(=O)c1cc2c(o1)C(=O)c1ccccc1C2=O [NAPABUCASIN]	0.5	331

— ChEMBL document CHEMBL1144088, “Potential antipsoriatic agents: lapacho compounds as potent inhibitors of HaCaT cell growth” (J Nat Prod, 1999)
